{"source": "patent US6245917A", "about": "“Crystalline sodium phenytoin monohydrate” (Warner-Lambert Company, priority 1999, dated 2001)", "assay_type_in_all_cases": "physicochemical", "key": {"[1]": {"assay": "DSC and TGA thermal analyses", "experimental": "Differential scanning calorimetry (DSC) experiments were performed on a Dupont DSC 2000 and thermogravimetric analyses (TGA) were performed on a Dupont TGA 2000. Nitrogen was used as the purge gas and heating rates were 10° C./minute. Standards were run prior to sample analyses; Sn for DSC and calcium oxalate for TGA.\nBoth SPM and SPA were analyzed by x-ray powder diffraction (XRPD), infrared (IR) spectroscopy, solid-state nuclear magnetic resonance (SSNMR) spectroscopy, differential scanning calorimetry (DSC) and thermogravimetric analysis (TGA). The XRPD patterns of SPM and SPA are quite different and distinguishable. While the IR and SSNMR spectra of SPM and SPA are different, the differences are subtle. SPM and SPA behave quite differently on both DSC and TGA thermal analyses. SPA undergoes endothermic transitions at 364° C. and 409° C. that are accompanied by a weight loss of 72%."}, "[2]": {"assay": "Weight change under controlled humidity conditions, first study (SPM made by the toluene slurry)", "conditions": "for Percent change based on average of final two weights: monohydrate", "excerpt": "Study of weight change under controlled humidity conditions, samples were placed in open vials, which were placed in closed controlled-humidity jars. Relative humidities were controlled using saturated aqueous salt solutions: 58% RH, NaBr; 75% RH, (NH4)2 SO4; 76%, sodium acetate; 84% RH, KBr. Water uptake/loss characteristics of SPM and SPA were compared. Samples were kept at ambient temperature under various relative humidities (RHs) and were periodically weighed. […] The fact that SPM loses significant mass under even high humidity conditions is inconsistent with the loss of only water."}, "[3]": {"assay": "Repeated water uptake study with solvent-free SPM (dichloromethane preparation)", "excerpt": "Study of weight change under controlled humidity conditions, samples were placed in open vials, which were placed in closed controlled-humidity jars. Relative humidities were controlled using saturated aqueous salt solutions: 58% RH, NaBr; 75% RH, (NH4)2 SO4; 76%, sodium acetate; 84% RH, KBr.\nA possible cause of the observed weight loss is that some reaction solvent (toluene in this case) from the preparation of SPM remained on the solid and evaporated in the humidity jars. To test this theory, it was decided to prepare SPM, show it to be solvent-free, and repeat the water uptake studies. Dichloromethane was chosen as the organic solvent for the preparation rather than toluene because its lower boiling point should allow it to be removed from the solid more easily and completely. SPM was made by stirring a slurry of SPA and one equivalent of water in dichloromethane for 2 days, then isolation by filtration and air-drying of the solid SPM.\nThe remainder of the SPM sample was allowed to dry in an open jar under ambient conditions for about 1 week. It was then characterized by XRPD elemental analysis, and Karl Fischer (KF) analysis. The sample appears to be pure SPM containing very little, if any, residual solvent.\nBoth SPM and SPA increased in weight about 20% when equilibrium was reached (constant weight) at each humidity utilized. The samples were analyzed by XRPD after completion of the water uptake experiments. […] The nature of this form has not been determined."}}, "data": [{"molecule": "O=C1NC(=O)C(c2ccccc2)(c2ccccc2)N1", "note": "[SPM, sodium phenytoin monohydrate]", "values": [{"measurement": "endothermic transition temperature", "setting": "[1]; DSC, nitrogen, 10° C./minute, monohydrate", "result": "about 65 °C"}, {"measurement": "weight loss accompanying the low-temperature endothermic transition", "setting": "[1]; TGA, transition at about 65° C.", "result": 5, "unit": "%"}, {"measurement": "Percent change based on average of final two weights", "setting": "[2]; 58% RH", "result": -10, "unit": "%"}, {"measurement": "Percent change based on average of final two weights", "setting": "[2]; 75% RH", "result": -10, "unit": "%"}, {"measurement": "Percent change based on average of final two weights", "setting": "[2]; 84% RH", "result": -9, "unit": "%"}, {"measurement": "weight lost on reaching constant weight", "setting": "[2]; all humidities utilized, ambient temperature", "result": 10, "unit": "%"}, {"measurement": "sample weight", "setting": "[3]; 58% RH, day 0 (starting weight), monohydrate", "result": 1.5057, "unit": "g"}, {"measurement": "change in starting weight", "setting": "[3]; 58% RH, day 1, monohydrate", "result": "+0.0186 g"}, {"measurement": "sample weight", "setting": "[3]; 58% RH, day 1, monohydrate", "result": 1.5243, "unit": "g"}, {"measurement": "change in starting weight", "setting": "[3]; 58% RH, day 2, monohydrate", "result": "+0.0269 g"}, {"measurement": "sample weight", "setting": "[3]; 58% RH, day 2, monohydrate", "result": 1.5326, "unit": "g"}, {"measurement": "change in starting weight", "setting": "[3]; 58% RH, day 3, monohydrate", "result": "+0.0384 g"}, {"measurement": "sample weight", "setting": "[3]; 58% RH, day 3, monohydrate", "result": 1.5441, "unit": "g"}, {"measurement": "change in starting weight", "setting": "[3]; 58% RH, day 4, monohydrate", "result": "+0.0510 g"}, {"measurement": "sample weight", "setting": "[3]; 58% RH, day 4, monohydrate", "result": 1.5567, "unit": "g"}, {"measurement": "change in starting weight", "setting": "[3]; 58% RH, day 5, monohydrate", "result": "+0.0620 g"}, {"measurement": "sample weight", "setting": "[3]; 58% RH, day 5, monohydrate", "result": 1.5677, "unit": "g"}, {"measurement": "change in starting weight", "setting": "[3]; 58% RH, day 6, monohydrate", "result": "+0.0717 g"}, {"measurement": "sample weight", "setting": "[3]; 58% RH, day 6, monohydrate", "result": 1.5774, "unit": "g"}, {"measurement": "change in starting weight", "setting": "[3]; 58% RH, day 7, monohydrate", "result": "+0.0816 g"}, {"measurement": "sample weight", "setting": "[3]; 58% RH, day 7, monohydrate", "result": 1.5873, "unit": "g"}, {"measurement": "change in starting weight", "setting": "[3]; 58% RH, day 8, monohydrate", "result": "+0.0940 g"}, {"measurement": "sample weight", "setting": "[3]; 58% RH, day 8, monohydrate", "result": 1.5997, "unit": "g"}, {"measurement": "change in starting weight", "setting": "[3]; 58% RH, day 10, monohydrate", "result": "+0.1185 g"}, {"measurement": "sample weight", "setting": "[3]; 58% RH, day 10, monohydrate", "result": 1.6242, "unit": "g"}, {"measurement": "change in starting weight", "setting": "[3]; 58% RH, day 11, monohydrate", "result": "+0.1340 g"}, {"measurement": "sample weight", "setting": "[3]; 58% RH, day 11, monohydrate", "result": 1.6397, "unit": "g"}, {"measurement": "change in starting weight", "setting": "[3]; 58% RH, day 12, monohydrate", "result": "+0.1486 g"}, {"measurement": "sample weight", "setting": "[3]; 58% RH, day 12, monohydrate", "result": 1.6543, "unit": "g"}, {"measurement": "change in starting weight", "setting": "[3]; 58% RH, day 13, monohydrate", "result": "+0.1555 g"}, {"measurement": "sample weight", "setting": "[3]; 58% RH, day 13, monohydrate", "result": 1.6612, "unit": "g"}, {"measurement": "change in starting weight", "setting": "[3]; 58% RH, day 14, monohydrate", "result": "+0.1633 g"}, {"measurement": "sample weight", "setting": "[3]; 58% RH, day 14, monohydrate", "result": 1.6690, "unit": "g"}, {"measurement": "change in starting weight", "setting": "[3]; 58% RH, day 15, monohydrate", "result": "+0.1719 g"}, {"measurement": "sample weight", "setting": "[3]; 58% RH, day 15, monohydrate", "result": 1.6776, "unit": "g"}, {"measurement": "change in starting weight", "setting": "[3]; 58% RH, day 16, monohydrate", "result": "+0.1794 g"}, {"measurement": "sample weight", "setting": "[3]; 58% RH, day 16, monohydrate", "result": 1.6851, "unit": "g"}, {"measurement": "change in starting weight", "setting": "[3]; 58% RH, day 17, monohydrate", "result": "+0.1860 g"}, {"measurement": "sample weight", "setting": "[3]; 58% RH, day 17, monohydrate", "result": 1.6917, "unit": "g"}, {"measurement": "change in starting weight", "setting": "[3]; 58% RH, day 21, monohydrate", "result": "+0.2176 g"}, {"measurement": "sample weight", "setting": "[3]; 58% RH, day 21, monohydrate", "result": 1.7233, "unit": "g"}, {"measurement": "change in starting weight", "setting": "[3]; 58% RH, day 23, monohydrate", "result": "+0.2323 g"}, {"measurement": "sample weight", "setting": "[3]; 58% RH, day 23, monohydrate", "result": 1.7380, "unit": "g"}, {"measurement": "change in starting weight", "setting": "[3]; 58% RH, day 26, monohydrate", "result": "+0.2525 g"}, {"measurement": "sample weight", "setting": "[3]; 58% RH, day 26, monohydrate", "result": 1.7582, "unit": "g"}, {"measurement": "change in starting weight", "setting": "[3]; 58% RH, day 35", "result": "+0.2556 g"}, {"measurement": "sample weight", "setting": "[3]; 58% RH, day 35", "result": 1.7613, "unit": "g"}, {"measurement": "change in starting weight", "setting": "[3]; 58% RH, day 42", "result": "+0.2511 g"}, {"measurement": "sample weight", "setting": "[3]; 58% RH, day 42", "result": 1.7568, "unit": "g"}, {"measurement": "Percent change based on average of final two weights", "setting": "[3]; 58% RH, monohydrate", "result": "+17%"}, {"measurement": "sample weight", "setting": "[3]; 75% RH, day 0 (starting weight), monohydrate", "result": 1.5013, "unit": "g"}, {"measurement": "change in starting weight", "setting": "[3]; 75% RH, day 1, monohydrate", "result": "+0.0470 g"}, {"measurement": "sample weight", "setting": "[3]; 75% RH, day 1, monohydrate", "result": 1.5483, "unit": "g"}, {"measurement": "change in starting weight", "setting": "[3]; 75% RH, day 2, monohydrate", "result": "+0.0930 g"}, {"measurement": "sample weight", "setting": "[3]; 75% RH, day 2, monohydrate", "result": 1.5943, "unit": "g"}, {"measurement": "change in starting weight", "setting": "[3]; 75% RH, day 3, monohydrate", "result": "+0.1386 g"}, {"measurement": "sample weight", "setting": "[3]; 75% RH, day 3, monohydrate", "result": 1.6399, "unit": "g"}, {"measurement": "change in starting weight", "setting": "[3]; 75% RH, day 4, monohydrate", "result": "+0.1819 g"}, {"measurement": "sample weight", "setting": "[3]; 75% RH, day 4, monohydrate", "result": 1.6832, "unit": "g"}, {"measurement": "change in starting weight", "setting": "[3]; 75% RH, day 5, monohydrate", "result": "+0.2205 g"}]}]}
